Measurements as given in the OligoGym collection.
Values joined by “and” are separate entries in the source; they are usually repeats but may differ in a detail not shown here. Identical values can stand only once. After the bases stand the sugars from the 5' end (letter, count) and the backbone: PS all phosphorothioate, else s phosphorothioate and o phosphodiester by linkage. Methylation of C is not given here. e = 2'-O-(2-methoxyethyl) (MOE); k = constrained ethyl (cEt); d = 2'-deoxy (DNA)

Tests used:
IRF4 = settings: ASO
HSD17B13 = settings: ASO, HepaRG

Row | Sequence | target mRNA inhibition (IRF4; SK-MEL-28, 4 µM) | target mRNA inhibition (IRF4; MM.1R, 1 µM) | other results
1 | AAAAATATAACGGTGT (sugars k3 d10 k3, PS) | 24% | – | –
2 | AAAACTACTATTGTGG (sugars k3 d10 k3, PS) | 14% | – | –
3 | AAAAGTAACTGACACG (sugars k3 d10 k3, PS) | 61% | – | –
4 | AAACAGCCCACTGAGT (sugars k3 d10 k3, PS) | 11% | – | –
5 | AAACGACAAGTGGCGC (sugars k3 d10 k3, PS) | 21% | – | –
6 | AAACGGCCTGGAGGTG (sugars k3 d10 k3, PS) | – | 11% | –
7 | AAAGACAAGTGCCCAT (sugars k3 d10 k3, PS) | 24% | – | –
8 | AAAGAGTGGTACACCT (sugars k3 d10 k3, PS) | – | 10% | –
9 | AAATATACCAGCTCAA (sugars k3 d10 k3, PS) | 25% | – | –
10 | AAATATCGCCCATGAG (sugars k3 d10 k3, PS) | 39% | – | –
11 | AAATCTTCAACAGCAC (sugars k3 d10 k3, PS) | 45% | – | –
12 | AACAAACAGAGGAGCG (sugars k3 d10 k3, PS) | 16% | – | –
13 | AACACTTGGAGAAGTC (sugars k3 d10 k3, PS) | 43% | – | –
14 | AACCAGCACAGTTCTC (sugars k3 d10 k3, PS) | -18% | – | –
15 | AACCATGTTCCTGAAG (sugars k3 d10 k3, PS) | 41% | – | –
16 | AACCATTACTTAGACA (sugars k3 d10 k3, PS) | 45% | – | –
17 | AACGACAAGTGGCGCA (sugars k3 d10 k3, PS) | – | 12% | –
18 | AACGACTCCACAGAGC (sugars k3 d10 k3, PS) | – | 4% | –
19 | AACGGCCTGGAGGTGA (sugars k3 d10 k3, PS) | – | 1% | –
20 | AACTAGCAGGGCACGC (sugars k3 d10 k3, PS) | – | 2% | –
21 | AACTATAATTGGCACG (sugars k3 d10 k3, PS) | 73% and 59% | – | –
22 | AACTCTCCTGTTTTCG (sugars k3 d10 k3, PS) | 42% | – | –
23 | AACTGAGAGTGCGAGG (sugars k3 d10 k3, PS) | 1% | – | –
24 | AAGAAACGAGTTGACA (sugars k3 d10 k3, PS) | 22% | – | –
25 | AAGAAGCAAGTCGGTC (sugars k3 d10 k3, PS) | 55% | – | –
26 | AAGAAGCACTGGCATT (sugars k3 d10 k3, PS) | 22% | – | –

Row | Sequence | target mRNA inhibition (IRF4; SK-MEL-28, 4 µM) | target mRNA inhibition (IRF4; MM.1R, 1 µM) | other results
27 | AAGAGGCGACTGCTGA (sugars k3 d10 k3, PS) | 35% | – | –
28 | AAGCAAGTGTCTAAAG (sugars k3 d10 k3, PS) | 29% | – | –
29 | AAGCAGTCATCACTCT (sugars k3 d10 k3, PS) | 38% | – | –
30 | AAGCAGTGATGTCAGG (sugars kkddddddddddkeke, PS) | – | 74% and 76% and 56% | target mRNA inhibition (IRF4; MM.1R, 0.0625 µM): 8%; target mRNA inhibition (IRF4; MM.1R, 0.25 µM): 22%; target mRNA inhibition (IRF4; MM.1R, 4 µM): 87%
31 | AAGCAGTGATGTCAGG (sugars kkdddddddddekeke, PS) | – | 65% | –
32 | AAGCAGTGATGTCAGG (sugars kkdddddddddkekek, PS) | – | 43% and 44% | –
33 | AAGCATCCTTTCCTAC (sugars k3 d10 k3, PS) | 35% | – | –
34 | AAGCATTTTATCATCC (sugars k2 d9 e3 k2, PS) | – | 21% | –
35 | AAGCATTTTATCATCC (sugars k3 d9 k3 e1, PS) | – | 33% | –
36 | AAGCATTTTATCATCC (sugars kkddddddddddkeke, PS) | – | 20% | –
37 | AAGCCTAGAGGTGCCT (sugars k3 d10 k3, PS) | – | 29% | –
38 | AAGCGCACCGCAGGCG (sugars k3 d10 k3, PS) | 4% | – | –
39 | AAGCTTGATAAAGGCT (sugars e1 k2 d9 k2 e2, PS) | – | -1% | –
40 | AAGCTTGATAAAGGCT (sugars k3 d9 k3 e1, PS) | – | 5% | –
41 | AAGCTTGATAAAGGCT (sugars kkdddddddddekeke, PS) | – | 38% | –
42 | AAGCTTGATAAAGGCT (sugars kkdddddddddkdkdk, PS) | – | -2% | –
43 | AAGCTTGATAAAGGCT (sugars kkdddddddddkekek, PS) | – | -19% | –
44 | AAGCTTGATAAAGGCT (sugars kkkddddddddkekek, PS) | – | -4% | –
45 | AAGGAGTGCAGGAGAG (sugars k3 d10 k3, PS) | 13% | – | –
46 | AAGGTCTGAGTTGTAC (sugars k3 d10 k3, PS) | – | 20% | –
47 | AAGGTTCCTGTCACCT (sugars k3 d10 k3, PS) | -2% | – | –
48 | AAGTGGAGGTCTTTGG (sugars k3 d10 k3, PS) | 66% | – | –
49 | AAGTGTCTAAAGTCCC (sugars k2 d9 e3 k2, PS) | – | 21% and 46% | –
50 | AAGTGTCTAAAGTCCC (sugars k3 d10 k3, PS) | – | 50% and 41% | –
51 | AAGTGTCTAAAGTCCC (sugars kdddddddddkekeke, PS) | – | 4% and 5% | –
52 | AAGTTCATGTAAAGTC (sugars kkdddddddddekeke, PS) | – | 34% and 29% | –

Row | Sequence | target mRNA inhibition (IRF4; SK-MEL-28, 4 µM) | target mRNA inhibition (IRF4; MM.1R, 1 µM) | other results
53 | AAGTTCATGTAAAGTC (sugars kkdddddddddkdkdk, PS) | – | 32% and 34% | –
54 | AAGTTTACACTGGATC (sugars k3 d10 k3, PS) | 58% | – | –
55 | AATAAGCTCATCTGCC (sugars k3 d10 k3, PS) | 36% | – | –
56 | AATATAGTTGTCTGGC (sugars k3 d10 k3, PS) | 50% | – | –
57 | AATCAGATGATGTCTA (sugars k3 d10 k3, PS) | -3% | – | –
58 | AATCTGGATGAGCTTA (sugars k3 d10 k3, PS) | – | 4% | –
59 | AATCTTCTGCTGATCC (sugars k3 d10 k3, PS) | 72% | – | –
60 | AATGAAGATCCACTAG (sugars k3 d10 k3, PS) | 61% | – | –
61 | AATGAGGAAGCCGTTC (sugars k3 d10 k3, PS) | 47% | – | –
62 | AATGAGTCGGTCACTT (sugars k3 d10 k3, PS) | 46% | – | –
63 | AATGCATAACACGGTG (sugars k3 d10 k3, PS) | 49% | – | –
64 | AATGTCCACTGTTTTG (sugars k3 d10 k3, PS) | 47% | – | –
65 | AATGTGTATTACTCTT (sugars kddddddddddkekek, PS) | – | 24% and 29% | –
66 | AATGTGTATTACTCTT (sugars kkdddddddddkdkdk, PS) | – | 10% and 15% | –
67 | AATTAAAGAGCGCATT (sugars k3 d10 k3, PS) | 17% | – | –
68 | AATTCCATAGAGCCAG (sugars k3 d10 k3, PS) | – | 18% | –
69 | AATTGGCACGAGGAAG (sugars k3 d10 k3, PS) | 28% | – | –
70 | AATTTCCATTGGAGGA (sugars k3 d10 k3, PS) | 33% | – | –
71 | AATTTTCACAGTGATC (sugars k3 d10 k3, PS) | 34% | – | –
72 | ACAAAAGGTTCCCGCG (sugars k3 d10 k3, PS) | 3% | – | –
73 | ACAAGCAGTGATGTCA (sugars k3 d10 k3, PS) | 73% | 14% | target mRNA inhibition (IRF4; MM.1R, 0.0625 µM): -4%; target mRNA inhibition (IRF4; MM.1R, 0.074 µM): 2%; target mRNA inhibition (IRF4; MM.1R, 0.222 µM): 6%; target mRNA inhibition (IRF4; MM.1R, 0.25 µM): 5%; target mRNA inhibition (IRF4; MM.1R, 0.666 µM): 14%; target mRNA inhibition (IRF4; MM.1R, 2 µM): 46%; target mRNA inhibition (IRF4; MM.1R, 4 µM): 52%
74 | ACAAGCATAAAAGGTT (sugars k3 d10 k3, PS) | 4% | – | –
75 | ACAAGCTGGGCCTTGC (sugars k3 d10 k3, PS) | 27% | – | –
76 | ACAATAAAATGTCACG (sugars k3 d10 k3, PS) | 29% | – | –
77 | ACAATACTGTAAGGGC (sugars k3 d10 k3, PS) | 75% and 68% | – | –
78 | ACACAAGTGGCCTTCC (sugars k3 d10 k3, PS) | 31% | – | –

Row | Sequence | target mRNA inhibition (IRF4; SK-MEL-28, 4 µM) | target mRNA inhibition (IRF4; MM.1R, 1 µM) | other results
79 | ACACACAAGTGGCCTT (sugars k3 d10 k3, PS) | 44% | – | –
80 | ACACACCAGGTTAAAC (sugars k3 d10 k3, PS) | 12% | – | –
81 | ACACACCTGACAACCA (sugars k3 d10 k3, PS) | 36% | – | –
82 | ACACAGCCTCGCCCTC (sugars k3 d10 k3, PS) | 20% | – | –
83 | ACACTTTGTACGGGTC (sugars k3 d10 k3, PS) | 56% | – | –
84 | ACACTTTTAGAGAGGA (sugars e1 k2 d9 k2 e2, PS) | – | 29% | –
85 | ACACTTTTAGAGAGGA (sugars k3 d9 k3 e1, PS) | – | 29% | –
86 | ACACTTTTAGAGAGGA (sugars kddddddddddkekek, PS) | – | -6% | –
87 | ACACTTTTAGAGAGGA (sugars kdddddddddkekeke, PS) | – | 6% | –
88 | ACACTTTTAGAGAGGA (sugars kkkddddddddkekek, PS) | – | 15% | –
89 | ACAGAGAGTCCGACGC (sugars k3 d10 k3, PS) | – | -8% | –
90 | ACAGAGCCAACTTATA (sugars k3 d10 k3, PS) | 6% | – | –
91 | ACAGATGGCATGCGAA (sugars k3 d10 k3, PS) | – | 19% | –
92 | ACAGCCGAAGCATTTT (sugars k3 d10 k3, PS) | – | 8% | –
93 | ACAGGCACGGCTTCAG (sugars k3 d10 k3, PS) | 64% | – | –
94 | ACAGTAAGAGGGCAGT (sugars k3 d10 k3, PS) | 84% | – | –
95 | ACAGTGACTTGCATCC (sugars kkdddddddddkekek, PS) | – | 32% | –
96 | ACATAACTCAGGCAAG (sugars k3 d10 k3, PS) | 1% | – | –
97 | ACCAACGACAGCATAG (sugars k3 d10 k3, PS) | 67% | – | –
98 | ACCAATTTATGCCATG (sugars k3 d10 k3, PS) | 17% | – | –
99 | TTTGAACCGTATTCCC (sugars k3 d10 k3, PS) | – | – | target mRNA inhibition (HSD17B13; 0.02 µM): 36%; target mRNA inhibition (HSD17B13; 0.078 µM): 41%; target mRNA inhibition (HSD17B13; 0.313 µM): 57%; target mRNA inhibition (HSD17B13; 1 µM): 69%; target mRNA inhibition (HSD17B13; 1.25 µM): 79%; target mRNA inhibition (HSD17B13; 5 µM): 85%
100 | TTTGACTGCTGCTAGT (sugars k3 d10 k3, PS) | – | – | target mRNA inhibition (HSD17B13; 1 µM): 21%
101 | TTTGAGCCTAAAATTG (sugars k3 d10 k3, PS) | – | – | target mRNA inhibition (HSD17B13; 1 µM): 26%
